Assay results taken from patent US20260262643A1, “HERBICIDAL BENZOXAZINES” (FMC CORPORATION, priority 2022, published 2026).

Key:
wheat [1] = test: Test A preemergence; format: in vivo, Triticum aestivum
Method in brief: (§1)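 Loam/sand soil; pre-em directed soil spray at planting, post-em spray at 1–2 leaf (2–10 cm). Compound in non-phytotoxic solvent + surfactant. Greenhouse 10 d; visual injury vs untreated, 0 = no effect, 100 = complete control.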

ryegrass, Italian [2] = test: Test A postemergence; format: in vivo, Lolium multiflorum
Method in brief: as §1

galium = test: Test A postemergence; format: in vivo, Galium aparine
Method in brief: as §1

pigweed, palmer [3] = test: Test A preemergence; format: in vivo, Amaranthus palmeri
Method in brief: as §1

blackgrass [4] = test: Test A preemergence; format: in vivo, Alopecurus myosuroides
Method in brief: as §1

ragweed [5] = test: Test A preemergence; format: in vivo, Ambrosia artemisiifolia
Method in brief: as §1

sedge, umbrella = test: Test B flooded paddy test; format: in vivo, Cyperus difformis; settings: 250 g ai/ha, Flood, 13 days, 0 to 100 scale (0 no effect, 100 complete control)
Method in brief: (§2)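 Percent weed or crop control, judged by eye on a 0–100 scale 13 days post-treatment, reflects compound added to a 3 cm flood maintained over 2-leaf plants in the greenhouse. Missing entries are marked with a dash.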

wheat [6] = test: Test A postemergence; format: in vivo, Triticum aestivum
Method in brief: as §1

foxtail, giant [7] = test: Test A postemergence; format: in vivo, Setaria faberi
Method in brief: as §1

rice = test: Test B flooded paddy test; format: in vivo, Oryza sativa; settings: 250 g ai/ha, Flood, 13 days, 0 to 100 scale (0 no effect, 100 complete control)
Method in brief: as §2

ryegrass, Italian [8] = test: Test A preemergence; format: in vivo, Lolium multiflorum
Method in brief: as §1

kochia [9] = test: Test A preemergence; format: in vivo, Bassia scoparia
Method in brief: as §1

horseweed = test: Test A postemergence; format: in vivo, Erigeron canadensis
Method in brief: as §1

barnyardgrass = test: Test B flooded paddy test; format: in vivo, Echinochloa crus-galli; settings: 250 g ai/ha, Flood, 13 days, 0 to 100 scale (0 no effect, 100 complete control)
Method in brief: as §2

foxtail, giant [10] = test: Test A preemergence; format: in vivo, Setaria faberi
Method in brief: as §1

ducksalad = test: Test B flooded paddy test; format: in vivo, Heteranthera limosa; settings: 250 g ai/ha, Flood, 13 days, 0 to 100 scale (0 no effect, 100 complete control)
Method in brief: as §2

corn [11] = test: Test A postemergence; format: in vivo, Zea mays
Method in brief: as §1

kochia [12] = test: Test A postemergence; format: in vivo, Bassia scoparia
Method in brief: as §1

pigweed, palmer [13] = test: Test A postemergence; format: in vivo, Amaranthus palmeri
Method in brief: as §1

goosegrass [14] = test: Test A postemergence; format: in vivo, Eleusine indica
Method in brief: as §1

blackgrass [15] = test: Test A postemergence; format: in vivo, Alopecurus myosuroides
Method in brief: as §1

goosegrass [16] = test: Test A preemergence; format: in vivo, Eleusine indica
Method in brief: as §1

ragweed [17] = test: Test A postemergence; format: in vivo, Ambrosia artemisiifolia
Method in brief: as §1

corn [18] = test: Test A preemergence; format: in vivo, Zea mays
Method in brief: as §1

oat, wild [19] = test: Test A postemergence; format: in vivo, Avena fatua
Method in brief: as §1

soybean [20] = test: Test A preemergence; format: in vivo, Glycine max
Method in brief: as §1

soybean [21] = test: Test A postemergence; format: in vivo, Glycine max
Method in brief: as §1

oat, wild [22] = test: Test A preemergence; format: in vivo, Avena fatua
Method in brief: as §1

[23] = 125 g ai/ha, visual injury after 10 days, 0 to 100 scale, 0 is no effect, 100 is complete control
[24] = 500 g ai/ha, 0 to 100 scale (0 no effect, 100 complete control), 10 days
[25] = 500 g ai/ha, Postemergence, 0 to 100 scale
[26] = 125 g ai/ha, postemergence, 10 days, visual injury, 0 to 100 scale (0 no effect, 100 complete control)

## Cc1cccc2c1O[C@@H](C)CN2C(=O)c1cccc(-n2cnc(C(C)(C)C)n2)c1 [Compound 65]
Wheat [1]; [23]
  Plant response rating, Wheat: 40
Wheat [1]; [24]
  Plant response rating, Wheat: 70
ryegrass, Italian [2]; [25]
  Plant response rating, Ryegrass, Italian: 100
galium; [26]
  Plant response rating, Galium: 100
galium; [25]
  Plant response rating, Galium: 100
pigweed, palmer [3]; [23]
  Plant response rating, Pigweed, Palmer: 90
pigweed, palmer [3]; [24]
  Plant response rating, Pigweed, Palmer: 100
Blackgrass [4]; [23]
  Plant response rating, Blackgrass: 80
Blackgrass [4]; [24]
  Plant response rating, Blackgrass: 90
Ragweed [5]; [23]
  Plant response rating, Ragweed: 0
Ragweed [5]; [24]
  Plant response rating, Ragweed: 40
sedge, umbrella
  Plant response rating, Sedge, Umbrella: 95
Wheat [6]; [25]
  Plant response rating, Wheat: 20
foxtail, giant [7]; [26]
  Plant response rating, Foxtail, Giant: 10
foxtail, giant [7]; [25]
  Plant response rating, Foxtail, Giant: 50
rice
  Plant response rating, Rice: 0
ryegrass, Italian [8]; [23]
  Plant response rating, Ryegrass, Italian: 100
ryegrass, Italian [8]; [24]
  Plant response rating, Ryegrass, Italian: 100
Kochia [9]; [23]
  Plant response rating, Kochia: 80
Kochia [9]; [24]
  Plant response rating, Kochia: 100
horseweed; [26]
  Plant response rating, Horseweed: 0
horseweed; [25]
  Plant response rating, Horseweed: 20
barnyardgrass
  Plant response rating, Barnyardgrass: 0
foxtail, giant [10]; [23]
  Plant response rating, Foxtail, Giant: 100
foxtail, giant [10]; [24]
  Plant response rating, Foxtail, Giant: 100
ducksalad
  Plant response rating, Ducksalad: 45
Corn [11]; [26]
  Plant response rating, Corn: 10
Corn [11]; [25]
  Plant response rating, Corn: 70
Kochia [12]; [26]
  Plant response rating, Kochia: 60
Kochia [12]; [25]
  Plant response rating, Kochia: 90
pigweed, palmer [13]; [25]
  Plant response rating, Pigweed, Palmer: 70
Goosegrass [14]; [26]
  Plant response rating, Goosegrass: 10
Goosegrass [14]; [25]
  Plant response rating, Goosegrass: 40
Blackgrass [15]; [26]
  Plant response rating, Blackgrass: 30
Blackgrass [15]; [25]
  Plant response rating, Blackgrass: 80
Goosegrass [16]; [23]
  Plant response rating, Goosegrass: 100
Goosegrass [16]; [24]
  Plant response rating, Goosegrass: 100
Ragweed [17]; [25]
  Plant response rating, Ragweed: 80
Corn [18]; [23]
  Plant response rating, Corn: 40
Corn [18]; [24]
  Plant response rating, Corn: 50
oat, wild [19]; [25]
  Plant response rating, Oat, Wild: 20
Soybean [20]; [23]
  Plant response rating, Soybean: 30
Soybean [20]; [24]
  Plant response rating, Soybean: 90
Soybean [21]; [25]
  Plant response rating, Soybean: 100
oat, wild [22]; [23]
  Plant response rating, Oat, Wild: 70
oat, wild [22]; [24]
  Plant response rating, Oat, Wild: 80

## Cc1cccc2c1O[C@@H](C)CN2C(=O)c1cc(-n2cncn2)ccc1F [Compound 50]
Wheat [1]; [23]
  Plant response rating, Wheat: 0
Wheat [1]; [24]
  Plant response rating, Wheat: 50
ryegrass, Italian [2]; [26]
  Plant response rating, Ryegrass, Italian: 50
ryegrass, Italian [2]; [25]
  Plant response rating, Ryegrass, Italian: 80
galium; [26]
  Plant response rating, Galium: 60
galium; [25]
  Plant response rating, Galium: 100
pigweed, palmer [3]; [23]
  Plant response rating, Pigweed, Palmer: 0
pigweed, palmer [3]; [24]
  Plant response rating, Pigweed, Palmer: 100
Blackgrass [4]; [23]
  Plant response rating, Blackgrass: 40
Blackgrass [4]; [24]
  Plant response rating, Blackgrass: 80
Ragweed [5]; [23]
  Plant response rating, Ragweed: 0
Ragweed [5]; [24]
  Plant response rating, Ragweed: 30
sedge, umbrella
  Plant response rating, Sedge, Umbrella: 0
Wheat [6]; [26]
  Plant response rating, Wheat: 40
Wheat [6]; [25]
  Plant response rating, Wheat: 70
foxtail, giant [7]; [26]
  Plant response rating, Foxtail, Giant: 70
foxtail, giant [7]; [25]
  Plant response rating, Foxtail, Giant: 90
rice
  Plant response rating, Rice: 0
ryegrass, Italian [8]; [23]
  Plant response rating, Ryegrass, Italian: 80
ryegrass, Italian [8]; [24]
  Plant response rating, Ryegrass, Italian: 90
Kochia [9]; [23]
  Plant response rating, Kochia: 0
Kochia [9]; [24]
  Plant response rating, Kochia: 10
horseweed; [26]
  Plant response rating, Horseweed: 0
horseweed; [25]
  Plant response rating, Horseweed: 10
barnyardgrass
  Plant response rating, Barnyardgrass: 0
foxtail, giant [10]; [23]
  Plant response rating, Foxtail, Giant: 90
foxtail, giant [10]; [24]
  Plant response rating, Foxtail, Giant: 100
ducksalad
  Plant response rating, Ducksalad: 0
Corn [11]; [26]
  Plant response rating, Corn: 30
Corn [11]; [25]
  Plant response rating, Corn: 60
Kochia [12]; [26]
  Plant response rating, Kochia: 10
Kochia [12]; [25]
  Plant response rating, Kochia: 70
pigweed, palmer [13]; [26]
  Plant response rating, Pigweed, Palmer: 30
pigweed, palmer [13]; [25]
  Plant response rating, Pigweed, Palmer: 30
Goosegrass [14]; [26]
  Plant response rating, Goosegrass: 50
Goosegrass [14]; [25]
  Plant response rating, Goosegrass: 90
Blackgrass [15]; [26]
  Plant response rating, Blackgrass: 50
Blackgrass [15]; [25]
  Plant response rating, Blackgrass: 70
Goosegrass [16]; [23]
  Plant response rating, Goosegrass: 90
Goosegrass [16]; [24]
  Plant response rating, Goosegrass: 100
Ragweed [17]; [26]
  Plant response rating, Ragweed: 20
Ragweed [17]; [25]
  Plant response rating, Ragweed: 40
Corn [18]; [23]
  Plant response rating, Corn: 0
Corn [18]; [24]
  Plant response rating, Corn: 0
oat, wild [19]; [26]
  Plant response rating, Oat, Wild: 20
oat, wild [19]; [25]
  Plant response rating, Oat, Wild: 50
Soybean [20]; [23]
  Plant response rating, Soybean: 30
Soybean [20]; [24]
  Plant response rating, Soybean: 90
Soybean [21]; [26]
  Plant response rating, Soybean: 100
Soybean [21]; [25]
  Plant response rating, Soybean: 100
oat, wild [22]; [23]
  Plant response rating, Oat, Wild: 20
oat, wild [22]; [24]
  Plant response rating, Oat, Wild: 90
